BindingDB's records for doi:10.1021/jm00394a026 (Wyeth Laboratories, 1987)

Molecular target: Arachidonate 5-lipoxygenase (Rattus norvegicus)
Assay: Ability to inhibit 5-lipoxygenase in rat

- IC50: 19.6 µM
SMILES: CN1C[C@@H](c2cccc(OCc3ccc4ccccc4n3)c2)OC1=O
